Reference: patent EP4696306A1, “ADENOSINE TRIPHOSPHATE SECRETION INHIBITOR, HEPATIC STELLATE CELL ACTIVATION INHIBITOR, HEPATIC STELLATE CELL DEACTIVATOR, HEPATIC FIBROSIS THERAPEUTIC AGENT, NON-ALCOHOLIC STEATOHEPATITIS THERAPEUTIC AGENT, PSORIASIS THERAPEUTIC AGENT, AND USE OF COMPOUND FOR PRODUCING ADENOSINE TRIPHOSPHATE …” (KURUME UNIVERSITY, priority 2023, dated 2024)

Test system: imiquimod-induced psoriasis
Experiment: Imiquimod-induced psoriasis model
Assay type: in vivo, mice
Settings: for auricular thickening and psoriatic symptoms: Example 21, N = 2
Experimental: Experimental psoriatic symptoms were induced in a mouse auricle by imiquimod. Six-week-old male C57BL/6 mice (N = 5) were acclimated for one week. On Days 1 to 7, 62.5 mg of 5% imiquimod cream (Beselna Cream 5%) (3.125 mg in terms of the active ingredient, manufactured by Mochida Pharmaceutical Co. Ltd.) was applied to the right auricle of the mice for 7 consecutive days (IMQ group). Once daily after the imiquimod application, the imeglimin administration group (IMQ + IMG group) received oral administration, at 40 mg/kg, of 500-mg Twymeeg (trademark) tablets (manufactured by Sumitomo Pharma Co. Ltd.) dissolved in physiological saline. The control group received an equal volume of physiological saline. On Day 8, the mice were euthanized by cervical dislocation, and auricle thickness was measured using a dial thickness gauge (manufactured by Adachi Sogyo Co., Ltd.).
Each excised mouse auricle was fixed in 4% paraformaldehyde at 4°C overnight. After ethanol substitution, the auricle was embedded in paraffin, sectioned using a rotary microtome Leica RM2165 (thickness, […]), and subjected to HE staining or immunohistochemical staining. For the immunohistochemical staining, the sections were deparaffinized, washed in xylene, and rehydrated through graded alcohols. The sections were incubated in DAKO at 95°C for 30 minutes. The sections were blocked at room temperature for 60 minutes and then incubated at room temperature for 2 hours to allow reaction with a TGM1 anti-rabbit polyclonal antibody (catalog number 12912-3-AP, manufactured by Proteintech). The sample was washed and then allowed to react with a secondary antibody (Alexa 544-conjugated secondary antibody (goat anti-rabbit IgG) (manufactured by Molecular Probes)) at room temperature for 60 minutes. After allowing reaction with DAPI at room temperature for 10 minutes, the sections were mounted with Fluoromount and imaged using a fluorescence microscope (BZ-X710, manufactured by Keyence).
The dorsal hair of mice was shaved and depilated (Day 0). To each of the left auricle and the depilated back of each mouse, 62.5 mg of 5% imiquimod cream (Beselna Cream 5%) was applied once daily a total of seven times (Days 1 to 7) in accordance with Example 18, to induce imiquimod-induced psoriasis (IMQ group). In the IMQ + IMG group, mice received oral administration of imeglimin (40 mg/kg) once daily (Day 1 to 7) after the imiquimod application. […] Thickness of the auricle was measured, and the degrees of erythema, desquamation, and infiltration in the affected area were rated on Days 1, 3, 5, 7, and 8 according to the PASI scoring of the DermNET Dermatology Resource (none: 0, mild: 1, moderate: 2, severe: 3, and very severe: 4). The resulting values were used to calculate the PASI score.
Further, for an auricle excised on Day 8, immunohistochemical staining was performed in the same manner as in Example 18, and auricular sections were imaged using a fluorescence microscope (BZ-X710; manufactured by Keyence Corporation).
On Days 1, 2, 3, 5, and 6, 62.5 mg of 5% imiquimod cream (Beselna Cream 5%) was applied to auricles of wild-type mice (IMQ) or VNUT knockout mice (VNUT KO + IMQ) to induce psoriatic symptoms. […] For a negative control, only 20% glycerin solution was applied. In IMQ + 1% IMG and IMQ + 0.1% IMG, 20% glycerin solution supplemented with 1% (w/v) imeglimin and 0.1% (w/v) imeglimin, respectively, was applied immediately after the imiquimod application. Further, in IMQ + 1% Clo and IMQ + 0.1% Clo, 20% glycerin solution supplemented with 1% (w/v) clodronate and 0.1% (w/v) clodronate, respectively, was applied immediately after the imiquimod application.

| Structure (SMILES) | auricular thickening and psoriatic symptoms (topical 20% glycerin solution with 0.1% (w/v) clodronate) | auricular thickening and psoriatic symptoms (topical 20% glycerin solution with 1% (w/v) clodronate) | epidermal desquamation and psoriatic symptoms of the auricle (Example 18, oral 40 mg/kg once daily, Days 1 to 7 (Twymeeg tablets dissolved in saline), N = 5) | auricle thickening induced by imiquimod (Example 18, oral 40 mg/kg once daily, Days 1 to 7, N = 5) | typical psoriatic symptoms (auricular thickness, desquamation, infiltration, PASI score), except erythema (Example 19, imeglimin 40 mg/kg orally once daily Day 1 to 7, N = 5) | effect compared with infliximab (Example 19, imeglimin 40 mg/kg orally versus infliximab 100 µg/mouse i.v.) | auricular thickening and psoriatic symptoms (topical 20% glycerin solution with 0.1% (w/v) imeglimin) | auricular thickening and psoriatic symptoms (topical 20% glycerin solution with 1% (w/v) imeglimin) |
| --- | --- | --- | --- | --- | --- | --- | --- | --- |
| O=P(O)(O)C(Cl)(Cl)P(=O)(O)O [clodronate] | the degree of auricular thickening was improved | the degree of auricular thickening was improved | – | – | – | – | – | – |
| C[C@H]1N=C(N(C)C)N=C(N)N1 [imeglimin] | – | – | eliminated epidermal desquamation and reduced the psoriatic symptoms | suppressed | reduced | almost equivalent, or imeglimin was more effective | no effect | the degree of auricular thickening was improved |
